Test results from PubChem BioAssay (NCI).
Where “and” joins values, the source holds several entries; their conditions need not be identical. Equal entries are not always repeated.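 Growth conditions: 96-well plates. Treatment: test compound, 48 hours, 5 concentrations. Analysis: linear interpolation between bracketing concentrations; unreached endpoints set to highest concentration. GI50 is the concentration that inhibits growth by half. TGI marks complete inhibition of growth.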

How the values were obtained:
Experiment in all cases: NCI anticancer screen, dose series, 48 h
K-562 leukemia = test system: K-562 leukemia
SN12C renal = test system: SN12C renal
HCT-15 colon = test system: HCT-15 colon
HOP-62 NSCLC = test system: HOP-62 NSCLC
HT29 colon = test system: HT29 colon
CCRF-CEM leukemia = test system: CCRF-CEM leukemia
NCI/ADR-RES ovarian = test system: NCI/ADR-RES ovarian
NCI-H460 lung = test system: NCI-H460 lung
NCI-H522 lung = test system: NCI-H522 lung
SK-MEL-2 melanoma = test system: SK-MEL-2 melanoma

Compound	TGI (K-562 leukemia) [µM]	TGI (SN12C renal) [µM]	TGI (HCT-15 colon) [µM]	TGI (HOP-62 NSCLC)	TGI (HT29 colon) [µM]	TGI (CCRF-CEM leukemia) [µM]	TGI (NCI/ADR-RES ovarian) [µM]	TGI (NCI-H460 lung)	TGI (NCI-H522 lung) [µM]	TGI (SK-MEL-2 melanoma) [µM]	GI50 (HOP-62 NSCLC)	GI50 (NCI-H522 lung) [µM]	GI50 (SK-MEL-2 melanoma) [µM]	GI50 (CCRF-CEM leukemia)	GI50 (NCI-H460 lung)	GI50 (K-562 leukemia) [µM]	GI50 (SN12C renal) [µM]	GI50 (HCT-15 colon) [µM]	GI50 (HT29 colon) [µM]	GI50 (NCI/ADR-RES ovarian) [µM]
O=C1Nc2noc(=O)nc2NO1	> 200	> 200	> 200	> 200 µM	> 200	> 200	> 200	> 200 µM	> 200	> 200										
CN(Cc1cnc2nc(N)nc(N)c2n1)c1ccc(C(=O)NC(CCC(=O)O)C(=O)O)c2ccccc12 (stereo not given)	> 1000	> 1000	> 1000		> 1000	> 1000	> 1000	> 1000 µM	7.12	> 1000	< 0.0244 µM	0.0826	> 1000							
COc1cccc2c(=O)oc(-c3ccccc3C)nc12	> 100	69.4	> 100	76.3 µM	> 100	73	> 100	> 100 µM	> 100	67.5										
C/C(=N/NC(=S)Nc1ccc(C)cc1)c1ccccn1	6.09	7.65	17.6	5.55 µM	19.4	4.64	1.34	7.95 µM	12	13.9										
COc1ccc(C2C(=O)c3ccc(OC)cc3OC2c2cccnc2)cc1 (stereo not given)	> 100	> 100	> 100	> 100 µM	> 100	> 100	> 100	> 100 µM	> 100	> 100										
Cn1c(CO)ccc1-c1ccc(-c2ccc(CO)[se]2)[se]1	98.5	> 100	> 70.6	40.8 µM	> 100	> 21	> 100	> 100 µM	> 86.3	26.9										
CN(C)c1cccc2c(S(=O)(=O)NCCN)cccc12	> 100	> 100	> 100	> 100 µM	> 100	> 100	> 100	> 100 µM	> 100	> 100										
COC(=O)C(Cc1ccccc1)NC(=O)C(CNC(=O)OCc1ccccc1)C(=O)OCc1ccccc1 (stereo not given)	> 100	> 100	> 100	39.9 µM and > 100 µM	> 100	> 100	> 100	> 100 µM and 36.5 µM	> 100	> 100	18 µM and 94.1 µM			> 100 µM and 38.5 µM	94.1 µM and 13.5 µM					
CCc1c(O)nc(Nc2nc3ccccc3[nH]2)[nH]c1=O	> 100	> 100	> 100	> 100 µM	> 100	> 100	> 100	> 100 µM	> 100	> 100										
COc1ccc2oc(=O)c(-c3cc4c(c(C)n3)c(=O)oc3ccc(OC)cc34)cc2c1	> 100	> 100	> 100	> 100 µM	> 100	> 100	> 100	> 100 µM	> 100	> 100										
CC[C@]1(c2ccc3c(c2)OCO3)C=[N+]([O-])O[C@H](OC2CCCC2(c2ccccc2)c2ccccc2)[C@@H]1OC(C)=O (stereo not given in full)	> 100	> 22.3	6.18	5.38 µM	3.78	> 64.6	4.88	4.91 µM	4.78	5.73										
CC1=NC(=N)N=C(C)C1N=Nc1ccc2nc(C)[nH]c2c1 (stereo not given)	> 100	> 100	> 100	> 100 µM	> 100	> 100	> 100	> 100 µM	> 100	> 100										
COc1cc2c(cc1O)C(Cc1ccc(OCc3ccccc3)c(OCc3ccccc3)c1)N(C(=O)NCCc1ccccc1)CC2 (stereo not given)	> 100	> 100	> 100	> 100 µM	> 100	> 100	> 100	> 100 µM	72.9	> 100										
Cc1n[nH]c(=O)n1-n1cccc1	> 100	> 100	> 100	> 100 µM	> 100	> 100	> 100	> 100 µM	> 100	> 100										
O=C(Nc1ccc(-n2cc(-c3ccncc3)c(-c3ccc(O)c(Cl)c3)n2)cc1)Nc1cc(C(F)(F)F)cc(C(F)(F)F)c1	17.9	16.3	12.6	17.3 µM	22.7	19.2	22.5	14.6 µM	15	4.98	5.02 µM	3.79	2.2	4.06 µM	3.69 µM	4.07	4.12	3.36	8.94	4.94
